Reference: patent US20240199546A1, “INHIBITORS OF SOLUTE CARRIER FAMILY 6A MEMBER 19 (SLC6A19) AND METHODS OF USE THEREOF” (Maze Therapeutics, Inc., priority 2022, published 2024)
Counter-ions that a name gives are not always drawn.

How the values were obtained:
human SLC6A19 and TMEM27 [1] = target: T1, human SLC6A19 and TMEM27 (Homo sapiens, UniProt Q695T7); experiment: Radiolabelled (3H) leucine uptake in CHO cells with doxycycline-inducible expression of human SLC6A19 and TMEM27 (Example B-1); assay type: cell-based; settings: CHO cells with doxycycline-inducible expression of human SLC6A19 and TMEM27, read-out: SLC6A19_Radioligand Uptake Assay IC50
T1 construct: expressed in transfected cells
T1 sequence (Q695T7 1-634): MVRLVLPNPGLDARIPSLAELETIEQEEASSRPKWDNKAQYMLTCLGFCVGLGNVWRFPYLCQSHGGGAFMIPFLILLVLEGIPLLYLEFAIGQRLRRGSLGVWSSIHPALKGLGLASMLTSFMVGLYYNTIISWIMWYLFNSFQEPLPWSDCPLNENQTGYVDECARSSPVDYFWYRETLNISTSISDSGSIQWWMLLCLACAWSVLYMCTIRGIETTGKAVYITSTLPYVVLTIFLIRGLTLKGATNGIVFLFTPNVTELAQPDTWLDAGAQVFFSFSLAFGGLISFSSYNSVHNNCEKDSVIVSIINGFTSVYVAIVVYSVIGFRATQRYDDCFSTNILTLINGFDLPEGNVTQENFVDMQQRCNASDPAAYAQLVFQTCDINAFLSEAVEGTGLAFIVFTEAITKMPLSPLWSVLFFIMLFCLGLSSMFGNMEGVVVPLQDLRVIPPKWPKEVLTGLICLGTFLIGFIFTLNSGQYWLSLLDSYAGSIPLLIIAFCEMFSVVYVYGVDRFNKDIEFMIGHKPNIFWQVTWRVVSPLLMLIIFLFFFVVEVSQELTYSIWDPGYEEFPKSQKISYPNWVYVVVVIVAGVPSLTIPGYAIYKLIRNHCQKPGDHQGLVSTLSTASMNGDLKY
T1 sequence (Q9HBJ8 15-222 partner): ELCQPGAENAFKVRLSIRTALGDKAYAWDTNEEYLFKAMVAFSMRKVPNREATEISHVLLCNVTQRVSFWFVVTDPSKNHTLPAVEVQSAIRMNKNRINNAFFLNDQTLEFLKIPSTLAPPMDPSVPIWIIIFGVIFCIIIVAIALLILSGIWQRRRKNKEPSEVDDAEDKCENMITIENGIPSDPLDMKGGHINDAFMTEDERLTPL
Method in brief: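 CHO cells were induced with doxycycline for 18 h at 37 °C, washed in HBSS, then exposed to compounds for 1 h: 8-point, 3-fold dilutions in duplicate, 0.5% DMSO final. Uptake measured by scintillation counting after 2 h shaking. Activity normalized with positive control as 0% and DMSO as 100%.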

human SLC6A19 and TMEM27 [2] = target: T1, human SLC6A19 and TMEM27; experiment: 13C6,15N-isoleucine uptake in CHO cells with doxycycline-inducible expression of human SLC6A19 and TMEM27, RapidFire mass spectrometry (Example B-2); assay type: cell-based; settings: read-out: SLC6A19_RapidFire Uptake Assay IC50
Method in brief: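 Read-out is RapidFire mass-spec peak area of 13C6,15N-isoleucine taken up over 20 min at 37 °C, after 20 min compound pre-exposure in pH 7.2 HEPES-buffered saline. Cells: doxycycline-induced CHO co-expressing human SLC6A19 and TMEM27; compounds as duplicate 10-point 2-fold dilutions, positive control setting 0% activity.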

Row | SMILES | IC50 (human SLC6A19 and TMEM27 [1]) [nM] | IC50 (human SLC6A19 and TMEM27 [2]) [nM]
1 | O=C(NCc1cc2cc(Cl)c(OCc3cscn3)cc2[nH]1)N1CCC1 [Compound 81, N-((5-chloro-6-(thiazol-4-ylmethoxy)-1H-indol-2-yl)methyl)azetidine-1-carboxamide] | 150 | 166
2 | O=C(NCc1cc2cc(Cl)c(OCc3cscn3)cc2[nH]1)N1CCCC1 [Compound 82, N-((5-chloro-6-(thiazol-4-ylmethoxy)-1H-indol-2-yl)methyl)pyrrolidine-1-carboxamide] | 149 | 45
3 | Cc1cc(COc2cc3[nH]c(CNC(=O)N4CCCC4)cc3cc2Cl)on1 [Compound 83, N-((5-chloro-6-((3-methylisoxazol-5-yl)methoxy)-1H-indol-2-yl)methyl)pyrrolidine-1-carboxamide] | 100 | 50
4 | CC1CCCN1C(=O)NCc1cc2cc(F)c(OCc3ccon3)cc2[nH]1 (centres unmarked) [Compound 90, N-((5-fluoro-6-(isoxazol-3-ylmethoxy)-1H-indol-2-yl)methyl)-2-methylpyrrolidine-1-carboxamide] | 870 | 1200
5 | CC1(C(=O)NCc2cc3cc(Cl)c(OCc4cc(C(F)F)on4)cc3[nH]2)CC1 [Compound 96, N-((5-chloro-6-((5-(difluoromethyl)isoxazol-3-yl)methoxy)-1H-indol-2-yl)methyl)-1-methylcyclopropane-1-carboxamide] | 261 | 354
6 | CC1(C(=O)NCc2cc3ccc(OCc4cc(C(F)F)on4)cc3[nH]2)CC1 [Compound 97, N-((6-((5-(difluoromethyl)isoxazol-3-yl)methoxy)-1H-indol-2-yl)methyl)-1-methylcyclopropane-1-carboxamide] | 421 | 909
7 | CC1(C(=O)NCc2cc3ccc(OCc4cccnc4F)cc3[nH]2)CC1 [Compound 98, N-((6-((2-fluoropyridin-3-yl)methoxy)-1H-indol-2-yl)methyl)-1-methylcyclopropane-1-carboxamide formate] | 210 | 274
8 | Cc1cc(CCOc2cc3[nH]c(CNC(=O)C4(C)CC4)cc3cc2Cl)no1 [Compound 99, N-((5-chloro-6-(2-(5-methylisoxazol-3-yl)ethoxy)-1H-indol-2-yl)methyl)-1-methylcyclopropane-1-carboxamide] | 158 | 81
9 | CC1(C(=O)NCc2cc3cc(Cl)c(OCc4cc(C5CC5)on4)cc3[nH]2)CC1 [Compound 100, N-((5-chloro-6-((5-cyclopropylisoxazol-3-yl)methoxy)-1H-indol-2-yl)methyl)-1-methylcyclopropane-1-carboxamide] | 201 | 397
10 | O=C(NCc1cc2cc(Cl)c(OCc3cocn3)cc2[nH]1)N1CCCC1 [Compound 113, N-((5-chloro-6-(oxazol-4-ylmethoxy)-1H-indol-2-yl)methyl)pyrrolidine-1-carboxamide] | 284 | 174
11 | O=C(NCc1cc2cc(F)c(OCc3cscn3)cc2[nH]1)N1CCCC1 [Compound 114, N-((5-fluoro-6-(thiazol-4-ylmethoxy)-1H-indol-2-yl)methyl)pyrrolidine-1-carboxamide] | 184 | 158
12 | CC1CCN(C(=O)NCc2cc3ccc(OCc4ccon4)cc3[nH]2)C1 (centres unmarked) [Compound 121, N-((6-(isoxazol-3-ylmethoxy)-1H-indol-2-yl)methyl)-3-methylpyrrolidine-1-carboxamide] | 282 | 590
13 | O=C(NCc1cc2ccc(OCc3ccon3)cc2[nH]1)N1CCC1 [Compound 122, N-((6-(isoxazol-3-ylmethoxy)-1H-indol-2-yl)methyl)azetidine-1-carboxamide] | 360 | 783
14 | O=C(NCc1cc2ccc(OCc3ccon3)cc2[nH]1)N1CCCCC1 [Compound 123, N-((6-(isoxazol-3-ylmethoxy)-1H-indol-2-yl)methyl)piperidine-1-carboxamide] | 340 | 576
15 | CC1CCCN1C(=O)NCc1cc2ccc(OCc3ccon3)cc2[nH]1 (centres unmarked) [Compound 124, N-((6-(isoxazol-3-ylmethoxy)-1H-indol-2-yl)methyl)-2-methylpyrrolidine-1-carboxamide] | 450 | 1320
16 | Cc1cc(COc2cc3[nH]c(CNC(=O)C4(C(F)(F)F)CC4)cc3cc2Cl)no1 [Compound 125, N-((5-chloro-6-((5-methylisoxazol-3-yl)methoxy)-1H-indol-2-yl)methyl)-1-(trifluoromethyl)cyclopropane-1-carboxamide] | 198 | 145

Row | SMILES | IC50 (human SLC6A19 and TMEM27 [1]) [nM] | IC50 (human SLC6A19 and TMEM27 [2]) [nM]
17 | CCC(=O)NCc1cc2cc(F)c(OCc3cscn3)cc2[nH]1 [Compound 126, N-((5-fluoro-6-(thiazol-4-ylmethoxy)-1H-indol-2-yl)methyl)propionamide] | 97 | 171
18 | CCC(=O)NCc1cc2cc(Cl)c(OCc3cc(C)on3)cc2[nH]1 [Compound 128, N-((5-chloro-6-((5-methylisoxazol-3-yl)methoxy)-1H-indol-2-yl)methyl)propionamide] | 70 | 32
19 | CCC(=O)NCc1cc2cc(Cl)c(OCc3ccon3)cc2[nH]1 [Compound 129, N-((5-chloro-6-(isoxazol-3-ylmethoxy)-1H-indol-2-yl)methyl)propionamide] | 80 | 44
20 | Cc1cc(COc2cc3[nH]c(CNC(=O)C(C)C)cc3cc2Cl)no1 [Compound 130, N-((5-chloro-6-((5-methylisoxazol-3-yl)methoxy)-1H-indol-2-yl)methyl)isobutyramide] | 85 | 65
21 | O=C(NCc1cc2cc(Cl)c(OCc3ccon3)cc2[nH]1)C1CC1 [Compound 131, N-((5-chloro-6-(isoxazol-3-ylmethoxy)-1H-indol-2-yl)methyl)cyclopropanecarboxamide] | 74 | 50
22 | CC(C)C(=O)NCc1cc2cc(Cl)c(OCc3ccon3)cc2[nH]1 [Compound 132, N-((5-chloro-6-(isoxazol-3-ylmethoxy)-1H-indol-2-yl)methyl)isobutyramide] | 136 | 103
23 | Cc1cc(COc2cc3[nH]c(CNC(=O)C4CC4)cc3cc2Cl)no1 [Compound 133, N-((5-chloro-6-((5-methylisoxazol-3-yl)methoxy)-1H-indol-2-yl)methyl)cyclopropanecarboxamide] | 82 | 45
24 | O=C(NCc1cc2cc(Cl)c(OCc3ccon3)cc2[nH]1)C1(C(F)(F)F)CC1 [Compound 134, N-((5-chloro-6-(isoxazol-3-ylmethoxy)-1H-indol-2-yl)methyl)-1-(trifluoromethyl)cyclopropane-1-carboxamide] | 187 | 84
25 | CC(C)C(=O)NCc1cc2cc(F)c(OCc3cscn3)cc2[nH]1 [Compound 135, N-((5-fluoro-6-(thiazol-4-ylmethoxy)-1H-indol-2-yl)methyl)isobutyramide] | 82 | 49
26 | O=C(NCc1cc2cc(F)c(OCc3cscn3)cc2[nH]1)C1CC1 [Compound 136, N-((5-fluoro-6-(thiazol-4-ylmethoxy)-1H-indol-2-yl)methyl)cyclopropanecarboxamide] | 83 | 38
27 | CC(C)C(=O)NCc1cc2cc(Cl)c(OCc3cscn3)cc2[nH]1 [Compound 145, N-((5-chloro-6-(thiazol-4-ylmethoxy)-1H-indol-2-yl)methyl)isobutyramide] | 73 | 43
28 | CCC(=O)NCc1cc2cc(Cl)c(OCc3cscn3)cc2[nH]1 [Compound 146, N-((5-chloro-6-(thiazol-4-ylmethoxy)-1H-indol-2-yl)methyl)propionamide] | 60 | 36
29 | O=C(NCc1cc2cc(Cl)c(OCc3cscn3)cc2[nH]1)C1CC1 [Compound 147, N-((5-chloro-6-(thiazol-4-ylmethoxy)-1H-indol-2-yl)methyl)cyclopropanecarboxamide] | 67 | 33
30 | Cc1cc(CCc2cc3[nH]c(CNC(=O)C4(C)CC4)cc3cc2Cl)no1 [Compound 148] | 154 | 31
31 | CC1(C(=O)NCc2cc3cc(Cl)c(CCc4cscn4)cc3[nH]2)CC1 [Compound 149, N-((5-chloro-6-(2-(thiazol-4-yl)ethyl)-1H-indol-2-yl)methyl)-1-methylcyclopropane-1-carboxamide] | 85 | 34
